According to patent publication US12486471B2, “Perfume formulation for delivery system” (FIRMENICH SA, priority 2019, dated 2025):

Assay: Odor threshold concentration (Log T / Log ODT) by gas chromatograph sniff port with panelists
Set-up: species or system human
Experimental: “High impact perfume raw materials” should be understood as perfume raw materials having a Log T<−4. The odor threshold concentration of a chemical compound is determined in part by its shape, polarity, partial charges and molecular mass. For convenience, the threshold concentration is presented as the common logarithm of the threshold concentration, i.e., Log [Threshold] (“Log T”).
The odor threshold concentration of a perfuming compound is determined by using a gas chromatograph (“GC”). Specifically, the gas chromatograph is calibrated to determine the exact volume of the perfume oil ingredient injected by the syringe, the precise split ratio, and the hydrocarbon response using a hydrocarbon standard of known concentration and chain-length distribution. The air flow rate is accurately measured and, assuming the duration of a human inhalation to last 12 seconds, the sampled volume is calculated. […] To determine the threshold concentration, solutions are delivered to the sniff port at the back-calculated concentration. A panelist sniffs the GC effluent and identifies the retention time when odor is noticed. The average across all panelists determines the odor threshold concentration of the perfuming compound. The determination of odor threshold is described in more detail in C.

[1] = ingredient of Perfume oil B (Table 3)
[2] = ingredient of Perfume oil C (Table 5)
[3] = ingredient of Perfume oil D (Table 7)
[4] = ingredient of Perfume oil A (Table 1)

Compound | Log ODT [1] | Log ODT [2] | Log ODT [3] | Log ODT [4]
C=CCCC(=O)C1=CCCC(C)(C)C1 | <−4 | <−4 | – | –
CC12CCC(CC1)C(C)(C)O2 | >−4 | >−4 | >−4 | –
COc1nccnc1CCCC(C)C | <−4 | – | – | –
CC1(C)CC=C(CCC=O)CC1 | – | – | – | >−4
CC(=O)/C=C/C1=C(C)CCCC1(C)C | – | – | – | <−4
1-OXA-12-CYCLOHEXADECEN-2-ONE (A) + 1-OXA-13-CYCLOHEXADECEN-2-ONE (B) | – | >−4 | – | –
2-METHYLBUTYL SALICYLATE (A) + PENTYL SALICYLATE (B) | – | – | – | >−4
3,5,6-TRIMETHYL-3-CYCLOHEXENE-1-CARBALDEHYDE (A) + 2,4,6-TRIMETHYL-3-CYCLOHEXENE-1-CARBALDEHYDE (B) | – | >−4 | – | –
3,7-DIMETHYL-2,6-NONADIENENITRILE (A) + 3,7-DIMETHYL-3,6-NONADIENENITRILE (B) | – | >−4 | – | –
3-(4-ETHYLPHENYL)-2,2-DIMETHYLPROPANAL (A) + 3-(2-ETHYLPHENYL)-2,2-DIMETHYLPROPANAL (B) | >−4 | – | – | –
10-UNDECENAL (A) + (9E)-9-UNDECENAL (B) + (9Z)-9-UNDECENAL (C) | <−4 | <−4 | – | –
C/C=C/C(=O)[C@@H]1[C@@H](C)C=CCC1(C)C (racemic) | <−4 | – | – | <−4
CC(C)=CCCC(C)C=O (racemic) | >−4 | – | – | >−4
C=CC(C)CCCC(C)(C)O (racemic) | – | – | – | >−4
CC(C)CCCC(C)CCO (racemic) | >−4 | – | – | –
C=CC(C)(CCC=C(C)C)OC(C)=O (racemic) [(+−)-1,5-DIMETHYL-1-VINYL-4-HEXENYL ACETATE] | – | >−4 | – | >−4
CC1=CCC(C(C)(C)S)CC1 (racemic) [(+−)-2-(4-METHYL-3-CYCLOHEXEN-1-YL)-2-PROPANETHIOL] | <−4 | <−4 | – | –
CCCCCCCCCC(C)C=O (racemic) [(+−)-2-METHYLUNDECANAL] | <−4 | <−4 | <−4 | <−4
CC(C)c1cccc(C(C)CC=O)c1 (racemic) [(+−)-3-(3-ISOPROPYL-1-PHENYL)BUTANAL] | <−4 | – | – | –
CCCCCCCC1CCC(=O)O1 (racemic) [(+−)-5-HEPTYLDIHYDRO-2(3H)-FURANONE] | – | <−4 | – | –
CC/C=C(\C)C(O)CCCCC (racemic) [(+−)-(E)-4-METHYL-3-DECEN-5-OL] | >−4 | – | – | >−4
CCOC(=O)C(C)CC (racemic) [(+−)-ETHYL 2-METHYLBUTANOATE] | – | – | – | >−4
CCCCC[C@H]1C(=O)CC[C@@H]1CC(=O)OC (racemic) [METHYL 2-((1RS,2RS)-3-OXO-2-PENTYLCYCLOPENTYL)ACETATE] | – | >−4 | – | >−4
CC1=CCC2C[C@@H]1C2(C)C (single isomer, unassigned; (-)) | – | >−4 | – | –
c1ccc(Oc2ccccc2)cc1 [1,1′-OXYDIBENZENE] | – | – | – | >−4

Compound | Log ODT [1] | Log ODT [2] | Log ODT [3] | Log ODT [4]
COc1ccc(C)cc1 [1-METHOXY-4-METHYLBENZENE] | – | – | – | >−4
COc1ccc2ccccc2c1 [2-METHOXYNAPHTHALENE] | – | <−4 | <−4 | –
CC(=O)OCCc1ccccc1 [2-PHENYLETHYL ACETATE] | – | – | – | >−4
CC1=CC2CC(C=O)C1CC2C(C)C (centres unmarked) [8-ISOPROPYL-6-METHYL-BICYCLO[2.2.2]OCT-5-ENE-2-CARBALDEHYDE] | <−4 | – | <−4 | –
CC(=O)OCCC(C)CCC=C(C)C (centres unmarked) [37-DIMETHYL-6-OCTENYL ACETATE] | – | >−4 | – | –
CC(=O)O[C@@H]1CC2CC[C@]1(C)C2(C)C [(1R,2R)-1,7,7-TRIMETHYL-BICYCLO[2.2.1]HEPT-2-YL ACETATE] | – | >−4 | >−4 | –
COCCc1ccccc1 [(2-METHOXYETHYL)BENZENE] | >−4 | – | – | –
CC/C=C\CCOC(C)=O [(Z)-3-HEXENYL ACETATE] | – | >−4 | – | –
CC/C=C\CCOC(=O)C(C)C [(Z)-3-HEXENYL ISOBUTYRATE] | – | >−4 | – | –
CC1(C)CCC[C@]2(C)[C@H]3CCO[C@]3(C)CC[C@@H]12 [(−)-(3AR,5AS,9AS,9BR)-3A,6,6,9A-TETRAMETHYLDODECAHYDRONAPHTHO[2,1-B]FURAN] | <−4 | – | <−4 | –
CCCCCCCCCC(C)=O [Capsule 2-UNDECANONE, 2-UNDECANONE] | >−4 | – | – | –
CCCCCCCCCC=O [DECANAL] | – | – | >−4 | –
CCCCCCOC(=O)c1ccccc1O [HEXYL 2-HYDROXYBENZOATE] | – | – | – | >−4
CCCCCCOC(C)=O [HEXYL ACETATE] | – | – | – | >−4
CCCCCCCC=O [OCTANAL] | – | – | >−4 | –
O=C1CCCCCCCCCCCCCCO1 [OXACYCLOHEXADECAN-2-ONE] | – | >−4 | – | –
(1RS,2RS)-2,4-DIMETHYL-3-CYCLOHEXENE-1-CARBALDEHYDE (A) + (1RS,2SR)-2,4-DIMETHYL-3-CYCLOHEXENE-1-CARBALDEHYDE (B) | – | >−4 | – | >−4
(2RS,4SR)-4-METHYL-2-(2-METHYL-1-PROPEN-1-YL)TETRAHYDRO-2H-PYRAN (A) + (2RS,4RS)-4-METHYL-2-(2-METHYL-1-PROPEN-1-YL)TETRAHYDRO-2H-PYRAN (B) | >−4 | – | – | >−4
(2Z)-1,1-DIETHOXY-3,7-DIMETHYL-2,6-OCTADIENE (A) + (2E)-1,1-DIETHOXY-3,7-DIMETHYL-2,6-OCTADIENE (B) | >−4 | – | >−4 | –
(+)-(3S)-3-[(1R)-4-METHYL-3-CYCLOHEXEN-1-YL]BUTANAL (A) + (+)-(3R)-3-[(1R)-4-METHYL-3-CYCLOHEXEN-1-YL]BUTANAL | – | – | >−4 | –
(+−)-4-METHYLENE-2-PHENYLTETRAHYDRO-2H-PYRAN (A) + (+−)-4-METHYL-6-PHENYL-3,6-DIHYDRO-2H-PYRAN (B) + (+−)-4-METHYL-2-PHENYL-3,6-DIHYDRO-2H-PYRAN (C) | <−4 | – | <−4 | –
(+−)-(3E)-3-METHYL-4-(2,6,6-TRIMETHYL-2-CYCLOHEXEN-1-YL)-3-BUTEN-2-ONE (A) + (+−)-(1E)-1-(2,6,6-TRIMETHYL-2-CYCLOHEXEN-1-YL)-1-PENTEN-3-ONE (B) | – | <−4 | – | –
.ALPHA.-DIHYDROTERPINEOL (A) + BETA.-DIHYDROTERPINEOL (B) | >−4 | – | – | –
TRICYCLO[5.2.1.0~2,6~]DEC-3-EN-8-YL ACETATE (A) + TRICYCLO[5.2.1.0~2,6~]DEC-4-EN-8-YL ACETATE (B) | >−4 | – | – | >−4
